The test system of this assay is HEK293 cells. In words: Endogenous ceramide, HexCer and SM levels in cells treated 24 h, targeted LC-MS/MS. The format is cell-based. Also noted: Cer 18:1/24:0 content in HEK293 cells / Cer 18:1/24:1 content in HEK293 cells / HexCer 18:1/16:0 content in HEK293 cells / HexCer 18:1/18:0 content in HEK293 cells / HexCer 18:1/20:0 content in HEK293 cells / HexCer 18:1/22:0 content in HEK293 cells / Cer 18:1/16:0 content in HEK293 cells / Cer 18:1/18:0 content in HEK293 cells / Cer 18:1/20:0 content in HEK293 cells / Cer 18:1/22:0 content in HEK293 cells: unit not given here. As to the method:
Lipids were then extracted using MTBE/methanol/water as described above.
HEK293 cell culture experiment: Levels of each lipid in P053-treated HEK293 cells were normalised to the mean of the vehicle control group, and each concentration was compared to the control using ANOVA with Dunnett’s post-test. P values were adjusted for multiple comparisons in GraphPad PRISM.
Supplementary Figure 1. Ceramide, SM, and HexCer levels in HEK293 cells treated with
P053. Absolute lipid levels were determined by targeted LC-MS/MS, relative to external
standard curves. Results are mean ± SEM (n = 4) from one of two identical experiments.
Statistically significant results, based on two independent experiments, are as indicated in
Figure 2b-d. Raw data for these figures is provided in Supplementary Data File 1.

Setting [1] is: HEK293 cells, 24 h, P053 300 nM.
[2] abbreviates: P053 10 nM, replicates, raw data Suppl Fig 1.

Several values for one entry are separate records, joined by “and”; a condition that tells them apart may be missing. Equal entries are not always repeated.

In the case of `C[C@@](N)(CO)CCc1ccc(OCc2ccc(Cl)c(Cl)c2)cc1` [P053, (S)-2-amino-4-(4-(3,4-dichlorobenzyloxy)phenyl)-2-methylbutan-1-ol], under setting [1], the “16:0 SM level” value was 91.5762 percentage of the vehicle control group and 97.3304 percentage of the vehicle control group and 95.7086 percentage of the vehicle control group and 90.4865 percentage of the vehicle control group and 94.7045 percentage of the vehicle control group and 94.6107 percentage of the vehicle control group and 97.4329 percentage of the vehicle control group; the “16:1 SM level” value was 95.4131 percentage of the vehicle control group and 93.1931 percentage of the vehicle control group and 97.1412 percentage of the vehicle control group and 89.2518 percentage of the vehicle control group and 106.305 percentage of the vehicle control group and 110.099 percentage of the vehicle control group and 114.576 percentage of the vehicle control group; the “18:0 Cer level” value is 21.4642 percentage of the vehicle control group and 24.1123 percentage of the vehicle control group and 20.5881 percentage of the vehicle control group and 19.7155 percentage of the vehicle control group and 31.2852 percentage of the vehicle control group and 28.1026 percentage of the vehicle control group and 22.7669 percentage of the vehicle control group; the “18:0 HexCer level” value was 20.413 percentage of the vehicle control group and 33.7976 percentage of the vehicle control group and 27.9895 percentage of the vehicle control group and 24.1749 percentage of the vehicle control group and 31.4424 percentage of the vehicle control group and 25.6474 percentage of the vehicle control group and 28.2273 percentage of the vehicle control group. In addition, under setting [1], the “18:0 SM level” value was 51.9053 percentage of the vehicle control group and 55.6537 percentage of the vehicle control group and 52.9265 percentage of the vehicle control group and 58.2406 percentage of the vehicle control group and 58.0965 percentage of the vehicle control group and 68.5828 percentage of the vehicle control group; the “18:1 SM level” value is 49.0849 percentage of the vehicle control group and 55.9252 percentage of the vehicle control group and 57.6407 percentage of the vehicle control group and 49.9379 percentage of the vehicle control group and 59.4579 percentage of the vehicle control group and 65.5511 percentage of the vehicle control group and 62.889 percentage of the vehicle control group; the “20:0 Cer level” value was 93.6887 percentage of the vehicle control group and 101.721 percentage of the vehicle control group and 118.09 percentage of the vehicle control group and 85.7665 percentage of the vehicle control group and 100.615 percentage of the vehicle control group and 64.6288 percentage of the vehicle control group and 92.3762 percentage of the vehicle control group; the “20:0 SM level” value is 118.407 percentage of the vehicle control group and 108.075 percentage of the vehicle control group and 104.904 percentage of the vehicle control group and 101.736 percentage of the vehicle control group and 91.4298 percentage of the vehicle control group and 108.941 percentage of the vehicle control group and 75.5566 percentage of the vehicle control group. Moreover, under setting [1], the “22:0 Cer level” value is 118.325 percentage of the vehicle control group and 95.8434 percentage of the vehicle control group and 96.1691 percentage of the vehicle control group and 93.2377 percentage of the vehicle control group and 117.011 percentage of the vehicle control group and 126.355 percentage of the vehicle control group and 127.853 percentage of the vehicle control group; the “22:0 HexCer level” value is 109.712 percentage of the vehicle control group and 101.896 percentage of the vehicle control group and 93.6786 percentage of the vehicle control group and 100.98 percentage of the vehicle control group and 134.335 percentage of the vehicle control group and 123.952 percentage of the vehicle control group and 138.922 percentage of the vehicle control group; the “22:0 SM level” value was 115.888 percentage of the vehicle control group and 97.5579 percentage of the vehicle control group and 89.8927 percentage of the vehicle control group and 119.666 percentage of the vehicle control group and 127.143 percentage of the vehicle control group and 125.883 percentage of the vehicle control group and 147.638 percentage of the vehicle control group; the “22:1 SM level” value was 108.27 percentage of the vehicle control group and 122.085 percentage of the vehicle control group and 110.7 percentage of the vehicle control group and 101.001 percentage of the vehicle control group and 122.515 percentage of the vehicle control group and 112.931 percentage of the vehicle control group and 116.965 percentage of the vehicle control group. Under setting [1], the “24:0 HexCer level” value was 104.713 percentage of the vehicle control group and 95.2413 percentage of the vehicle control group and 95.3365 percentage of the vehicle control group and 92.7673 percentage of the vehicle control group and 114.448 percentage of the vehicle control group and 102.627 percentage of the vehicle control group and 132.114 percentage of the vehicle control group; the “24:0 SM level” value is 113.274 percentage of the vehicle control group and 99.4416 percentage of the vehicle control group and 98.6316 percentage of the vehicle control group and 91.5407 percentage of the vehicle control group and 114.934 percentage of the vehicle control group and 115.44 percentage of the vehicle control group and 155.315 percentage of the vehicle control group; the “24:1 Cer level” value is 111.319 percentage of the vehicle control group and 96.194 percentage of the vehicle control group and 99.387 percentage of the vehicle control group and 100.62 percentage of the vehicle control group and 125.506 percentage of the vehicle control group and 116.048 percentage of the vehicle control group and 122.55 percentage of the vehicle control group; the “24:1 HexCer level” value is 99.7739 percentage of the vehicle control group and 98.9226 percentage of the vehicle control group and 100.626 percentage of the vehicle control group and 98.0727 percentage of the vehicle control group and 98.7766 percentage of the vehicle control group and 107.494 percentage of the vehicle control group and 117.137 percentage of the vehicle control group. In addition, under setting [1], the “24:1 SM level” value is 105.1 percentage of the vehicle control group and 102.826 percentage of the vehicle control group and 108.435 percentage of the vehicle control group and 97.4023 percentage of the vehicle control group and 115.741 percentage of the vehicle control group and 108.576 percentage of the vehicle control group and 128.227 percentage of the vehicle control group. Also, under setting [2], the “Cer 18:1/16:0 content in HEK293 cells” value was 22.4895 and 20.1065 and 20.2227 and 20.5646; the “Cer 18:1/18:0 content in HEK293 cells” value is 6.1592 and 6.073 and 6.699 and 5.451; the “Cer 18:1/20:0 content in HEK293 cells” value was 0.6713 and 0.9209 and 0.7221 and 0.8599; the “Cer 18:1/22:0 content in HEK293 cells” value is 56.12 and 63.3729 and 65.2079 and 63.3152.

(Values after paper PMC6104039 (Nature Communications, 2018).)
